Test [1] in a line: Inhibition of Escherichia coli RNA polymerase by transcription assay.
Test [2] deals with Escherichia coli. Briefly: Antibacterial activity against Escherichia coli expressing TolC mutant. Format: functional.
Test [3] deals with Escherichia coli. Put plainly: Inhibition of Escherichia coli RNA polymerase at 200 uM by transcription assay.
For test [4], the system named is Staphylococcus aureus. Put plainly: Antibacterial activity against Staphylococcus aureus. Format: functional.
Test [5] concerns Bacillus subtilis. Put plainly: Antibacterial activity against Bacillus subtilis. Format: functional.
The test system of test [6] is Pseudomonas aeruginosa. Briefly: Antibacterial activity against Pseudomonas aeruginosa PAO1. It is filed as functional.
Test [7] concerns Escherichia coli. Put plainly: Antibacterial activity against Escherichia coli K-12. Format: functional.
In test [8] the test system is Escherichia coli. Put plainly: Inhibition of Escherichia coli RNA polymerase-RNA polymerase sigma factor RpoD interaction at 50 uM by ELISA. Background: ELISA stands for enzyme-linked immunosorbent assay.
Test [9] can be described thus: Inhibition of Escherichia coli RNA polymerase core enzyme by transcription assay.
Test [10] in a line: Inhibition of Escherichia coli RNA polymerase-RNA polymerase sigma factor RpoD interaction by ELISA.
Test [11] relates to Escherichia coli. Put plainly: Ratio of IC50 for Escherichia coli RNA polymerase core enzyme to IC50 for Escherichia coli RNA polymerase holo enzyme.
A short description of test [12]: Inhibition of Escherichia coli RNA polymerase holo enzyme by transcription assay.
Test [13] has as its system Escherichia coli. Briefly: Inhibition of DNA synthesis in Escherichia coli expressing TolC mutant at 4 times MIC after 45 mins. Format: functional, organism-based.
In test [14] the test system is Escherichia coli. Put plainly: Inhibition of protein synthesis in Escherichia coli expressing TolC mutant at 4 times MIC after 45 mins. It is filed as functional, organism-based.
The subject of test [15] is Escherichia coli. Put plainly: Inhibition of RNA synthesis in Escherichia coli expressing TolC mutant at 4 times MIC after 45 mins. It is filed as functional, organism-based.
The test system of test [16] is Escherichia coli. Briefly: Induction of resistant frequency in Escherichia coli expressing TolC mutant at 2 times MIC treated for every 3 days. It is filed as functional, organism-based.
Test [17] deals with Escherichia coli. Briefly: Inhibition of lipid synthesis in Escherichia coli expressing TolC mutant at 4 times MIC after 45 mins. It is filed as functional, organism-based.

≈ marks a conversion by molar mass, not a printed value. Calls of active or inactive are those of the source. The calls are words filed in the database; no cut-off is given here.

The term IC50 denotes the concentration that gives 50% inhibition. The term MIC denotes the least concentration at which growth counts as inhibited. Lower therefore signals greater potency. For orientation: inhibition means the share of the control response that was lost under treatment.

For the molecule `COc1cc(NC(=O)c2cccc(Oc3ccccc3)c2)c(C(=O)O)cc1OC`, the IC50 in [1] (read-out: IC50) came to 154 µM. In [2], the MIC worked out at 6 µg/mL (≈ 15.3 µM).

Turning to `O=C(Nc1ccc(O)cc1C(=O)O)c1ccc(-c2ccccc2)cc1`, in [3], the inhibition came to 17%. In addition, in test [2], the MIC was determined as 31 µg/mL (≈ 93 µM).

In the case of `O=C(Nc1cc(Br)ccc1C(=O)O)c1cccc(Oc2ccccc2)c1`, the MIC in test [4] is 8 µg/mL (≈ 19.4 µM); in test [5] it was 3 µg/mL (≈ 7.28 µM); in [6] it was more than 25 µg/mL; in [2] it was 3 µg/mL (≈ 7.28 µM); in test [7], more than 25 µg/mL. Besides, in [1] (read-out: IC50), the IC50 came out at 34 µM.

In the case of `O=C(Nc1ccc(Br)cc1C(=O)O)c1cccc(Oc2ccccc2)c1`, the IC50 in test [1] (read-out: IC50) was 34 µM. This molecule gave a minimal inhibitory concentration (MIC) in test [2] of 3 µg/mL (≈ 7.28 µM).

As for `O=C(Nc1cc(Cl)ccc1C(=O)O)c1ccc(-c2ccccc2)cc1`, the MIC in test [4] is 24 µg/mL (≈ 68.2 µM); in [5] it was 2 µg/mL (≈ 5.69 µM); in test [6], more than 50 µg/mL; in test [2] it was 3 µg/mL (≈ 8.53 µM); in [7] it was more than 50 µg/mL. Moreover, in test [1] (read-out: IC50), the concentration for half-maximal inhibition (IC50) stood at 37 µM.

The molecule `O=C(Nc1cccc(F)c1C(=O)O)c1ccc(-c2ccccc2)cc1` gave an inhibition in [3] of 14%. The molecule further displayed a minimal inhibitory concentration (MIC) in test [2] of 34 µg/mL (≈ 101 µM).

For the molecule `COc1cc(NC(=O)c2ccc(-c3ccccc3)cc2)c(C(=O)O)cc1OC`, the inhibition in test [3] turned out to be 35%. The molecule also had an MIC in test [2] of 19 µg/mL (≈ 50.3 µM).

In the case of `O=C(Nc1cc(-c2ccccc2)ccc1C(=O)O)c1cccc(Oc2ccccc2)c1`, the IC50 in test [1] (read-out: IC50) is 14 µM. Also, the MIC in [2] came out at 8 µg/mL (≈ 19.5 µM).

With `O=C(Nc1ccc(OC(F)(F)F)cc1C(=O)O)c1ccc(-c2ccccc2)cc1`, the IC50 in test [1] (read-out: IC50) came to 31 µM. Besides, the minimum inhibitory concentration (MIC) in test [2] came out at 4 µg/mL (≈ 9.97 µM).

`COc1ccc(C(=O)O)c(NC(=O)c2ccc(-c3ccccc3)cc2)c1`: the IC50 in test [1] (read-out: IC50) is 162 µM. Besides, in test [2], the MIC came out at 9 µg/mL (≈ 25.9 µM).

`O=C(Nc1ccc(F)cc1C(=O)O)c1ccc(-c2ccccc2)cc1`: the concentration for half-maximal inhibition (IC50) in test [1] (read-out: IC50) was 138 µM. The molecule further yielded a minimal inhibitory concentration (MIC) in test [2] of 7 µg/mL (≈ 20.9 µM).

Take `O=C(Nc1cccc(Cl)c1C(=O)O)c1ccc(-c2ccccc2)cc1`: the IC50 result in test [1] is recorded as “Not Active”. For the same molecule, the inhibition in test [8] is less than 10%. The molecule further had an MIC in [2] of 57 µg/mL (≈ 162 µM).

For `COc1cccc(NC(=O)c2ccc(-c3ccccc3)cc2)c1C(=O)O`, the IC50 result in [1] is “Not Active”. This molecule also gave a minimal inhibitory concentration (MIC) in test [2] of 58 µg/mL (≈ 167 µM).

In the case of `O=C(Nc1ccccc1C(=O)O)c1ccc(-c2ccccc2)c(Oc2ccccc2)c1`, the 50% inhibitory concentration (IC50) in test [9] worked out at 36 µM; in [1] (read-out: IC50), 20 µM; in test [10] it was 41 µM; in [12], 20 µM. In test [3], the inhibition stood at 100%. Also, the Ratio IC50 in test [11] is 3. In test [2], the minimal inhibitory concentration (MIC) amounted to 13 µg/mL (≈ 31.8 µM).

For the molecule `O=C(Nc1cc(Cl)ccc1C(=O)O)c1cccc(Oc2ccccc2)c1`, the MIC was 14 µg/mL (≈ 38.1 µM) in test [4]; 3 µg/mL (≈ 8.16 µM) in test [5]; more than 50 µg/mL in [6]; 3 µg/mL (≈ 8.16 µM) in test [2]; more than 50 µg/mL in test [7]. Further, the IC50 in [1] (read-out: IC50) was determined as 44 µM.

On to `O=C(Nc1ccc(Cl)cc1C(=O)O)c1ccc(-c2ccccc2)cc1`, for which, in test [1] (read-out: IC50), the IC50 is 46 µM. This molecule also showed an MIC in [2] of 2 µg/mL (≈ 5.69 µM).

For the molecule `O=C(Nc1ccc(-c2ccccc2)cc1C(=O)O)c1cccc(Oc2ccccc2)c1`, the inhibition entry in test [13], in test [14], in [15] and in [17] was “inactive” in each case. The minimal inhibitory concentration (MIC) in test [4] was 6 µg/mL (≈ 14.7 µM); in test [5], 3 µg/mL (≈ 7.33 µM); in test [6] it was more than 25 µg/mL; in test [2], 2 µg/mL (≈ 4.88 µM); in test [7], more than 25 µg/mL. The IC50 in [9] came to 27 µM; in test [1] (read-out: IC50), 13 µM; in [10] it was 47 µM; in test [12], 16 µM. Besides, the outcome in test [16] was Active. Besides, the Ratio IC50 in test [11] is 2.8.

In the case of `CCCC/C(C)=C/C=C(\C)C(=O)c1c(O)cc([C@H](C)CC/C=C/NC(=O)OC)oc1=O` [MYXOPYRONIN B], the MIC in test [4] is 0.5 µg/mL (≈ 1.16 µM); in test [5], 0.9 µg/mL (≈ 2.09 µM); in [6], more than 25 µg/mL; in test [2], 1 µg/mL (≈ 2.32 µM); in test [7] it was more than 25 µg/mL. For the same molecule, in test [1] (read-out: IC50), the concentration for half-maximal inhibition (IC50) worked out at 0.35 µM.

In the case of `O=C(Nc1cc(Cl)ccc1C(=O)O)c1ccc(-c2ccccc2)c(Oc2ccccc2)c1`, the half-inhibitory concentration (IC50) came out at 12 µM in test [9], 9 µM in test [1] (read-out: IC50), 33 µM in test [10] and 7 µM in test [12]. Besides, the Ratio IC50 in [11] turned out to be 2.9. Also, the minimum inhibitory concentration (MIC) in test [2] was more than 25 µg/mL.
